Test results taken from the supplement of paper PMC9013687.
± gives the standard deviation of the averaged measurements.

Columns and labels:
[1] = system: Danio rerio embryo; assay: EC10 Pericard size_Increase; higher = less potent
Experimental: (§1)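 Zebrafish embryos (UFZ-OBI strain) were exposed from 2 hpf for 48 h (2 dpf) or 96 h (4 dpf) at 28 °C; spontaneous tail coiling was scored at 25 hpf. Morphological features from automated image analysis (FishInspector), heart rate and locomotor response were fitted with drc models. Quantal endpoints were dichotomised at 2.5 SD from controls and fitted with a log-logistic model; heart rate, pigmentation and STC were normalised to the replicate control mean. Betamethasone was tested as betamethasone dipropionate, diflorasone as diflorasone diacetate.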

[2] = system: Danio rerio embryo; assay: spontaneous tail coiling frequency (coils/min/embryo); higher = more spontaneous movement; settings: 25 hpf
Experimental: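 Spontaneous tail coilings of zebrafish embryos exposed from 2 hpf were recorded at 24-25 hpf in 1-min videos and detected by a KNIME workflow from grey-value variance. Betamethasone was tested as the dipropionate, diflorasone as the diacetate.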

[3] = system: Danio rerio embryo; settings: for EC50 STC decrease: exposure time: 25 h
Experimental: as §1

[4] = system: Danio rerio embryo; settings: exposure time: 4 dpf
Experimental: as §1

[5] = system: Danio rerio embryo; assay: EC10 Bladder size_Decrease; higher = less potent; settings: exposure time: 4 dpf
Experimental: as §1

[6] = system: Danio rerio embryo; assay: EC20 Otolith-eye distance_Decrease; higher = less potent; settings: exposure time: 4 dpf
Experimental: as §1

[7] = system: Danio rerio embryo; assay: EC50 Bladder size_Decrease; settings: exposure time: 4 dpf
Experimental: as §1

[8] = system: Danio rerio embryo; assay: EC10 Otolith-eye distance_Decrease; higher = less potent; settings: exposure time: 4 dpf
Experimental: as §1

[9] = system: Danio rerio embryo; assay: EC20 Pericard size_Increase; higher = less potent
Experimental: as §1

[10] = system: Danio rerio embryo; assay: EC20 Bladder size_Decrease; higher = less potent; settings: exposure time: 4 dpf
Experimental: as §1

[11] = system: Danio rerio embryo; assay: EC20 LMR dark; higher = less potent; settings: exposure time: 4 dpf
Experimental: as §1

[12] = system: Danio rerio embryo; assay: EC50 Body length_Decrease
Experimental: as §1

[13] = system: Danio rerio embryo; assay: EC20 Any effect; higher = less potent
Experimental: as §1

[14] = system: Danio rerio embryo; assay: EC50 Eye-jaw distance_Decrease; settings: exposure time: 4 dpf
Experimental: as §1

[15] = system: Danio rerio embryo; assay: EC10 Eye-jaw distance_Decrease; higher = less potent; settings: exposure time: 4 dpf
Experimental: as §1

[16] = system: Danio rerio embryo; assay: EC10 Curvature_Increase; higher = less potent
Experimental: as §1

[17] = system: Danio rerio embryo; assay: EC10 Yolk sac size_Increase; higher = less potent; settings: exposure time: 4 dpf
Experimental: as §1

[18] = system: Danio rerio embryo; assay: EC10 Body length_Decrease; higher = less potent
Experimental: as §1

[19] = system: Danio rerio embryo; assay: EC20 Eye-jaw distance_Decrease; higher = less potent; settings: exposure time: 4 dpf
Experimental: as §1

[20] = system: Danio rerio embryo; assay: EC50 Pericard size_Increase
Experimental: as §1

[21] = system: Danio rerio embryo; assay: EC50 Curvature_Increase
Experimental: as §1

[22] = system: Danio rerio embryo; assay: EC20 Yolk sac size_Increase; higher = less potent; settings: exposure time: 4 dpf
Experimental: as §1

[23] = system: Danio rerio embryo; assay: EC50 Otolith-eye distance_Decrease; settings: exposure time: 4 dpf
Experimental: as §1

[24] = system: Danio rerio embryo; assay: EC20 Curvature_Increase; higher = less potent
Experimental: as §1

[25] = system: Danio rerio embryo; assay: EC10 Any effect; higher = less potent
Experimental: as §1

[26] = system: Danio rerio embryo; assay: EC50 Yolk sac size_Increase; settings: exposure time: 4 dpf
Experimental: as §1

[27] = system: Danio rerio embryo; assay: EC20 Body length_Decrease; higher = less potent
Experimental: as §1

[28] = system: Danio rerio embryo; assay: EC10 LMR dark; higher = less potent; settings: exposure time: 4 dpf
Experimental: as §1

[29] = system: Danio rerio embryo; assay: EC10 Head trunk angle_Decrease; higher = less potent; settings: exposure time: 2 dpf
Experimental: as §1

O=C(O)CCc1nc(-c2ccccc2)c(-c2ccccc2)o1 [Oxaprozin]
EC10 Pericard size Increase ([1]; exposure time: 2 dpf): 31.1 µM | EC10 Pericard size Increase ([1]; exposure time: 4 dpf): 11.8 µM | spontaneous tail coiling frequency ([2]; 15.2 µM): 4.43 | spontaneous tail coiling frequency ([2]; 17 µM): 3.98 | spontaneous tail coiling frequency ([2]; 22.7 µM): 4.29 | spontaneous tail coiling frequency ([2]; 34.1 µM): 4.85 ± 1.1 | spontaneous tail coiling frequency ([2]; 51.1 µM): 5.84 | spontaneous tail coiling frequency ([2]; 68.2 µM): 4.34 | spontaneous tail coiling frequency ([2]; 85.2 µM): 8.82 | spontaneous tail coiling frequency ([2]; 102.3 µM): 6.78 | EC50 Any effect ([3]; exposure time: 2 dpf): 30.2 µM | EC50 Any effect ([3]; exposure time: 4 dpf): 20.2 µM | EC50 Pigmentation increase ([3]; exposure time: 4 dpf): 35.6 µM | EC50 LMR dark [4]: 16.2 µM | EC10 Bladder size Decrease [5]: 11.5 µM | EC20 Otolith-eye distance Decrease [6]: 19.2 µM | EC50 Bladder size Decrease [7]: 12.2 µM | EC10 Otolith-eye distance Decrease [8]: 16.5 µM | EC20 Pericard size Increase ([9]; exposure time: 2 dpf): 38.6 µM | EC20 Pericard size Increase ([9]; exposure time: 4 dpf): 14.1 µM | EC20 Bladder size Decrease [10]: 11.8 µM | EC20 LMR dark [11]: 13.3 µM | EC50 Body length Decrease ([12]; exposure time: 2 dpf): 38 µM | EC50 Body length Decrease ([12]; exposure time: 4 dpf): 27.1 µM | EC20 Any effect ([13]; exposure time: 2 dpf): 19.3 µM | EC20 Any effect ([13]; exposure time: 4 dpf): 15.3 µM | EC50 Eye-jaw distance Decrease [14]: 21.5 µM | EC10 Eye-jaw distance Decrease [15]: 12.7 µM | EC10 Curvature Increase ([16]; exposure time: 2 dpf): 28.7 µM | EC10 Curvature Increase ([16]; exposure time: 4 dpf): 21.8 µM | EC10 Yolk sac size Increase [17]: 13.4 µM | EC10 Body length Decrease ([18]; exposure time: 2 dpf): 25.1 µM | EC10 Body length Decrease ([18]; exposure time: 4 dpf): 19.3 µM | EC20 Eye-jaw distance Decrease [19]: 15.4 µM | EC50 Pericard size Increase ([20]; exposure time: 2 dpf): 55.9 µM | EC50 Pericard size Increase ([20]; exposure time: 4 dpf): 19.1 µM | EC50 Curvature Increase ([21]; exposure time: 2 dpf): 61.4 µM | EC50 Curvature Increase ([21]; exposure time: 4 dpf): 30.8 µM | EC20 Yolk sac size Increase [22]: 16.3 µM | EC50 Otolith-eye distance Decrease [23]: 24.8 µM | EC20 Curvature Increase ([24]; exposure time: 2 dpf): 38 µM | EC20 Curvature Increase ([24]; exposure time: 4 dpf): 24.8 µM | EC10 Any effect ([25]; exposure time: 2 dpf): 14.9 µM | EC10 Any effect ([25]; exposure time: 4 dpf): 13 µM | EC50 Yolk sac size Increase [26]: 22.6 µM | EC20 Body length Decrease ([27]; exposure time: 2 dpf): 29.3 µM | EC20 Body length Decrease ([27]; exposure time: 4 dpf): 21.8 µM | EC10 LMR dark [28]: 11.8 µM

CCCNCC(O)COc1ccccc1C(=O)CCc1ccccc1 (configuration not stated) [Propafenone]
EC10 Pericard size Increase ([1]; exposure time: 4 dpf): 17.8 µM | spontaneous tail coiling frequency ([2]; 8.8 µM): 1.68 | spontaneous tail coiling frequency ([2]; 13.2 µM): 1.86 | spontaneous tail coiling frequency ([2]; 19.8 µM): 1.81 ± 0.55 | spontaneous tail coiling frequency ([2]; 29.6 µM): 0.98 | spontaneous tail coiling frequency ([2]; 44.5 µM): 1.23 ± 1.2 | spontaneous tail coiling frequency ([2]; 66.7 µM): 1 | spontaneous tail coiling frequency ([2]; 100 µM): 0.422 ± 0.49 | spontaneous tail coiling frequency ([2]; 142.9 µM): 0.49 | EC50 Any effect ([3]; exposure time: 4 dpf): 20.6 µM | EC50 LMR ligth increase ([3]; exposure time: 4 dpf): 19.6 µM | EC50 Pigmentation increase ([3]; exposure time: 4 dpf): 34.7 µM | EC50 STC decrease [3]: 47.5 µM | EC50 LMR dark [4]: 11.2 µM | EC10 Bladder size Decrease [5]: 6.71 µM | EC20 Otolith-eye distance Decrease [6]: 33.9 µM | EC50 Bladder size Decrease [7]: 7.8 µM | EC10 Otolith-eye distance Decrease [8]: 33 µM | EC20 Pericard size Increase ([9]; exposure time: 4 dpf): 18.8 µM | EC20 Bladder size Decrease [10]: 7.09 µM | EC20 LMR dark [11]: 4.28 µM | EC50 Body length Decrease ([12]; exposure time: 2 dpf): 79.5 µM | EC20 Any effect ([13]; exposure time: 4 dpf): 18.9 µM | EC50 Eye-jaw distance Decrease [14]: 20.6 µM | EC10 Eye-jaw distance Decrease [15]: 17.8 µM | EC10 Curvature Increase ([16]; exposure time: 2 dpf): 27.6 µM | EC10 Yolk sac size Increase [17]: 17.3 µM | EC10 Body length Decrease ([18]; exposure time: 2 dpf): 20.8 µM | EC20 Eye-jaw distance Decrease [19]: 18.8 µM | EC50 Pericard size Increase ([20]; exposure time: 4 dpf): 20.6 µM | EC50 Curvature Increase ([21]; exposure time: 2 dpf): 131 µM | EC20 Yolk sac size Increase [22]: 18.4 µM | EC50 Otolith-eye distance Decrease [23]: 35.5 µM | EC20 Curvature Increase ([24]; exposure time: 2 dpf): 49 µM | EC10 Any effect ([25]; exposure time: 4 dpf): 17.9 µM | EC50 Yolk sac size Increase [26]: 20.5 µM | EC20 Body length Decrease ([27]; exposure time: 2 dpf): 34.1 µM | EC10 LMR dark [28]: 2.43 µM

CCO/N=C(\CC)C1=C(O)CC(c2c(C)cc(C)cc2C)CC1=O (configuration not stated) [Tralkoxydim]
EC10 Pericard size Increase ([1]; exposure time: 4 dpf): 103 µM | spontaneous tail coiling frequency ([2]; 30.4 µM): 2.43 ± 0.84 | spontaneous tail coiling frequency ([2]; 60.7 µM): 2.33 | spontaneous tail coiling frequency ([2]; 91.1 µM): 4.43 ± 1.7 | spontaneous tail coiling frequency ([2]; 121.4 µM): 3.17 ± 1.6 | spontaneous tail coiling frequency ([2]; 151.8 µM): 1.92 ± 2.8 | spontaneous tail coiling frequency ([2]; 197.3 µM): 0.957 ± 1.6 | spontaneous tail coiling frequency ([2]; 258 µM): 0 | EC50 Any effect ([3]; exposure time: 2 dpf): 66 µM | EC50 Otolith ([3]; exposure time: 2 dpf): 241 µM | EC50 Any effect ([3]; exposure time: 4 dpf): 68.9 µM | EC50 STC decrease [3]: 171 µM | EC50 LMR dark [4]: 85.8 µM | EC10 Bladder size Decrease [5]: 47.1 µM | EC20 Otolith-eye distance Decrease [6]: 89.6 µM | EC50 Bladder size Decrease [7]: 61.3 µM | EC10 Otolith-eye distance Decrease [8]: 77.1 µM | EC20 Pericard size Increase ([9]; exposure time: 4 dpf): 104 µM | EC20 Bladder size Decrease [10]: 51.9 µM | EC20 LMR dark [11]: 1.56 µM | EC50 Body length Decrease ([12]; exposure time: 2 dpf): 66.2 µM | EC50 Body length Decrease ([12]; exposure time: 4 dpf): 103 µM | EC20 Any effect ([13]; exposure time: 2 dpf): 47.2 µM | EC20 Any effect ([13]; exposure time: 4 dpf): 52.7 µM | EC50 Eye-jaw distance Decrease [14]: 97.9 µM | EC10 Eye-jaw distance Decrease [15]: 84.3 µM | EC10 Head trunk angle Decrease [29]: 73.6 µM | EC10 Curvature Increase ([16]; exposure time: 2 dpf): 77.4 µM | EC10 Curvature Increase ([16]; exposure time: 4 dpf): 85.2 µM | EC10 Yolk sac size Increase [17]: 37.4 µM | EC10 Body length Decrease ([18]; exposure time: 2 dpf): 36.6 µM | EC10 Body length Decrease ([18]; exposure time: 4 dpf): 85.8 µM | EC20 Eye-jaw distance Decrease [19]: 89 µM | EC50 Pericard size Increase ([20]; exposure time: 4 dpf): 106 µM | EC50 Curvature Increase ([21]; exposure time: 2 dpf): 98.7 µM | EC50 Curvature Increase ([21]; exposure time: 4 dpf): 101 µM | EC20 Yolk sac size Increase [22]: 45.9 µM | EC50 Otolith-eye distance Decrease [23]: 116 µM | EC20 Curvature Increase ([24]; exposure time: 2 dpf): 84.7 µM | EC20 Curvature Increase ([24]; exposure time: 4 dpf): 90.7 µM | EC10 Any effect ([25]; exposure time: 2 dpf): 38.8 µM | EC10 Any effect ([25]; exposure time: 4 dpf): 45.1 µM | EC50 Yolk sac size Increase [26]: 65.3 µM | EC20 Body length Decrease ([27]; exposure time: 2 dpf): 45.5 µM | EC20 Body length Decrease ([27]; exposure time: 4 dpf): 91.9 µM | EC10 LMR dark [28]: 0.149 µM
